Test results taken from ChEMBL document CHEMBL2346507 (Bioorg Med Chem, 2013).
In brackets after ≈: the same amount, converted by molar mass. Values belong to the compound of their own block, whether it stands above or below them.

Assays:
[1] = Lipophilicity, log D of the compound at pH 7.4; assay type: physicochemical; conditions: buffer
[2] = Thermodynamic solubility of the compound in Japanese pharmacopoeia disintegration solution 2 containing bile acid at pH 6.8 after 18 hrs by HPLC analysis; assay type: physicochemical; conditions: read-out: Therm_solubility
[3] = Metabolic stability in mouse liver microsomes at 1 umol/L; assay type: ADME, Microsome; conditions: read-out: Stability
[4] = Metabolic stability in human liver microsomes at 1 umol/L; assay type: ADME, Microsome; conditions: read-out: Stability
[5] = Drug uptake in athymic BALB/cAcl-nu/nu mouse lung xenografted with human A549 cells at 1 mg/kg, po measured at 8 hrs by LC/MS/MS analysis; assay type: ADME, organism-based; design: dose 1 mg/kg, route oral; conditions: read-out: Drug uptake
[6] = Plasma concentration in athymic BALB/cAcl-nu/nu mouse xenografted with human A549 cells at 1 mg/kg, po measured at 8 hrs by LC/MS/MS analysis; assay type: ADME, organism-based; design: dose 1 mg/kg, route oral
[7] = Drug uptake in athymic BALB/cAcl-nu/nu mouse lung xenografted with human A549 cells at 1 mg/kg, po measured at 1 hr by LC/MS/MS analysis; assay type: ADME, organism-based; design: dose 1 mg/kg, route oral; conditions: read-out: Drug uptake
[8] = Plasma concentration in athymic BALB/cAcl-nu/nu mouse xenografted with human A549 cells at 1 mg/kg, po measured at 1 hr by LC/MS/MS analysis; assay type: ADME, organism-based; design: dose 1 mg/kg, route oral
[9] = Oral bioavailability in cynomolgus monkey at 0.5 mg/kg; assay type: ADME, organism-based, Macaca fascicularis; conditions: in vivo
[10] = Oral bioavailability in Crl:CD (SD) albino rat at 0.5 mg/kg; assay type: ADME, organism-based; conditions: in vivo
[11] = Mean residence time in Crl:CD (SD) albino rat at 0.5 mg/kg, po; assay type: ADME, organism-based; design: dose 0.5 mg/kg, route oral; conditions: in vivo
[12] = Mean residence time in cynomolgus monkey at 0.5 mg/kg, po; assay type: ADME, organism-based, Macaca fascicularis; design: dose 0.5 mg/kg, route oral; conditions: in vivo
[13] = AUC (0 to 48 hrs) in cynomolgus monkey at 0.5 mg/kg, po; assay type: ADME, organism-based, Macaca fascicularis; design: time < 48 hr, dose 0.5 mg/kg, route oral; conditions: plasma
[14] = AUC (0 to 24 hrs) in Crl:CD (SD) albino rat at 0.5 mg/kg, po; assay type: ADME, organism-based; design: time < 24 hr, dose 0.5 mg/kg, route oral; conditions: plasma
[15] = Tmax in Crl:CD (SD) albino rat at 0.5 mg/kg, po; assay type: ADME, organism-based; design: dose 0.5 mg/kg, route oral; conditions: in vivo
[16] = Tmax in cynomolgus monkey at 0.5 mg/kg, po; assay type: ADME, organism-based, Macaca fascicularis; design: dose 0.5 mg/kg, route oral; conditions: in vivo
[17] = Cmax in cynomolgus monkey at 0.5 mg/kg, po; assay type: ADME, organism-based, Macaca fascicularis; design: dose 0.5 mg/kg, route oral; conditions: in vivo
[18] = Cmax in Crl:CD (SD) albino rat at 0.5 mg/kg, po; assay type: ADME, organism-based; design: dose 0.5 mg/kg, route oral; conditions: in vivo
[19] = Total plasma clearance in cynomolgus monkey at […], iv; assay type: ADME, organism-based, Macaca fascicularis; design: dose 0.25 mg/kg, route intravenous
[20] = Total plasma clearance in Crl:CD (SD) albino rat at […], iv; assay type: ADME, organism-based; design: dose 0.25 mg/kg, route intravenous
[21] = Volume of distribution at steady state in cynomolgus monkey at […], iv; assay type: ADME, organism-based, Macaca fascicularis; design: dose 0.25 mg/kg, route intravenous; conditions: in vivo, read-out: Vdss
[22] = Volume of distribution at steady state in Crl:CD (SD) albino rat at […], iv; assay type: ADME, organism-based; design: dose 0.25 mg/kg, route intravenous; conditions: in vivo, read-out: Vdss
[23] = AUC (0 to 48 hrs) in cynomolgus monkey at […], iv; assay type: ADME, organism-based, Macaca fascicularis; design: time < 48 hr, dose 0.25 mg/kg, route intravenous; conditions: plasma
[24] = AUC (0 to 24 hrs) in Crl:CD (SD) albino rat at […], iv; assay type: ADME, organism-based; design: time < 24 hr, dose 0.25 mg/kg, route intravenous; conditions: plasma

logD [1]: 2.28
solubility thermodynamic at 18 h [2]: 3.7 µg/mL (≈ 8.58 µM)
microsomal CLint at 1 µM [3]: 43 µL/min/mg
microsomal CLint at 1 µM [4]: 6 µL/min/mg
SMILES: Cc1cc(C(=O)Nc2cccc(Oc3ccc4nc(NC(=O)C5CC5)cn4n3)c2)n(C)n1

concentration at 8 h [5]: < 15 ng/g
concentration at 8 h [6]: < 3 ng/mL
concentration at 1 h [7]: 242 ng/g
concentration at 1 h [8]: 451 ng/mL
bioavailability [9]: 57.6%
bioavailability [10]: 19.8%
MRT [11]: 3.3 h
MRT [12]: 11 h
AUC(0-t) at 48 h [13]: 1510 ng·h/mL
AUC(0-t) at 24 h [14]: 226 ng·h/mL
Tmax [15]: 1.3 h
Tmax [16]: 2.8 h
Cmax [17]: 129 ng/mL
Cmax [18]: 56 ng/mL
clearance [19]: 3.18 mL/min/kg
clearance [20]: 7.3 mL/min/kg
Vd [21]: 1.03 L/kg
Vd [22]: 0.471 L/kg
AUC(0-t) at 48 h [23]: 1310 ng·h/mL
logD [1]: 2.24
AUC(0-t) at 24 h [24]: 571 ng·h/mL
solubility thermodynamic at 18 h [2]: 38 µg/mL (≈ 85.3 µM)
microsomal CLint at 1 µM [3]: 31 µL/min/mg
microsomal CLint at 1 µM [4]: 2 µL/min/mg
SMILES: Cc1cc(C(=O)Nc2cc(Oc3ccc4nc(NC(=O)C5CC5)cn4n3)ccc2C)n(C)n1 [TAK-593]

logD [1]: 2.21
solubility thermodynamic at 18 h [2]: 14 µg/mL (≈ 31.1 µM)
microsomal CLint at 1 µM [3]: 54 µL/min/mg
microsomal CLint at 1 µM [4]: 9 µL/min/mg
SMILES: Cc1cc(C(=O)Nc2cc(Oc3ccc4nc(NC(=O)C5CC5)cn4n3)ccc2F)n(C)n1
